One data set deals with HIV. The data set is described as follows: microbe, parasite or virus in culture. It is filed as cell-based.
In the next data set the test system is H5N1 virus. The experiment in a line: microbe, parasite or virus in culture. It counts as cell-based, H5N1 influenza virus.
Another data set deals with EBOV (Ebola virus). The data set is described as follows: microbe, parasite or virus in culture. The following applies: Zaire ebolavirus. It is filed as cell-based.
For data set [1], the system named is VSV (vesicular stomatitis virus). The data set is described as follows: microbe, parasite or virus in culture. It is filed as cell-based.
Data set [2] concerns A549 cells. The data set is described as follows: cells. The note with it: Homo sapiens, A549, read-out: % Inhibition against A549 cells.
Data set [3] has as its system broad HIV clinical strains. The following applies: background; read-out: EC50 against broad HIV clinical strains; cited from earlier work.
Data set [4] has as its system A549 cells.
Another data set relates to SF162. The experiment in a line: HIV-1 clinical strain PBMC assay (p24 ELISA), SF162. It counts as cell-based. The note with it: Human immunodeficiency virus 1, PBMC, read-out: IC50 against SF162. Background: ELISA stands for enzyme-linked immunosorbent assay.
The subject of the next data set is 89.6. The data set is described as follows: HIV-1 clinical strain PBMC assay (p24 ELISA), 89.6. It is filed as cell-based. The following applies: Human immunodeficiency virus 1, PBMC, read-out: IC50 against 89.6.
The next data set relates to Bal. The experiment in a line: HIV-1 clinical strain PBMC assay (p24 ELISA), Bal. It is filed as cell-based. The note with it: Human immunodeficiency virus 1, BAL, read-out: IC50 against Bal.
In a further data set the test system is Lav.04. The experiment in a line: HIV-1 clinical strain PBMC assay (p24 ELISA), Lav.04. The following applies: Human immunodeficiency virus 1, PBMC, read-out: IC50 against Lav.04. It is filed as cell-based.
For the next data set, the system named is 1617-1. The experiment in a line: HIV-1 resistant strain PBMC assay (p24 ELISA), 1617-1 (AZT resistant). The note with it: Human immunodeficiency virus 1, PBMC, read-out: IC50 against 1617-1. It is filed as cell-based.
For the next data set, the system named is N119. The data set is described as follows: HIV-1 resistant strain PBMC assay (p24 ELISA), N119 (nevaripine resistant). It counts as cell-based. The following applies: Human immunodeficiency virus 1, PBMC, read-out: IC50 against N119.
The nature of data set [5]: Cytotoxicity against PBMC. It counts as cell-based. The note with it: human.
The next data set is described as follows: in vitro. The following applies: human, CC50 (nM).
The nature of data set [6]: Repeated-dose toxicity study in mice. The following applies: 25 and 50 mg/kg, daily i.p. for 28 days.
[7] abbreviates: Human immunodeficiency virus 1, A549.

Where two headings read alike, the source gives them in different places. Where only a bound is given, the exact number is not on record here.

Usually EC50 stands for the concentration at which the effect is half-maximal. In general, inhibition refers to the relative decrease from the control value, in per cent. On to `Cc1cn([C@H]2C[C@H](N=[N+]=[N-])[C@@H](CO)O2)c(=O)[nH]c1=O` [AZT, zidovudine, reference compound], for which the EC50 was 0.0026 µM in the data set on HIV (setting [7]); 0.00348 µM with H5N1 virus (Influenza A virus, H5N1, A549, read-out: EC50 against H5N1 virus); 0.0038 µM in the data set with EBOV (Ebola virus) (A549, read-out: EC50 against EBOV); 0.00706 µM in data set [1] (A549, read-out: EC50 against VSV); 0.077 to 0.095 µM in data set [3]. Also, the “% Inhibition against H5N1 virus” value in the data set with H5N1 virus (20 ng/mL) is given as 92.7%. Besides, the inhibition at 0.02 µg/mL in the data set with H5N1 virus (Influenza A virus, H5N1, A549, 20 ng/mL, read-out: % Inhibition against H5N1 virus) stood at 96.5%; in the data set on EBOV (Ebola virus) (A549, 20 ng/mL, read-out: % Inhibition against EBOV) it was 93.6%; in [1] (A549, 20 ng/mL, read-out: % Inhibition against VSV) it was 99.4%; in the data set on A549 cells [2] it was 1.1%.
Consider “2″-Acetyl-7-O-β-D-patentiflorin A [Compound 27bc]”, for which the EC50 with HIV (read-out: EC50) came to 0.00093 µM. This compound also yielded a CC50 in the data set with A549 cells [4] of 1.37 µM.
One may read the IC50 as the midpoint of a concentration-inhibition curve. For `COc1cc2c(OCC#N)c3c(c(-c4ccc5c(c4)OCO5)c2cc1OC)C(=O)OC3` [Compound 17a], the “anti-HIV activity in terms of SI values” with HIV is “much more improved anti-HIV activity”. This compound also gave an EC50 with HIV (setting [7]) of 0.072 µM. In addition, the concentration for half-maximal inhibition (IC50) in the data set with SF162 was 0.122 µM; in the data set on 89.6, 0.134 µM; in the data set with Bal it was 0.168 µM; in the data set on Lav.04 it was 0.151 µM; in the data set on 1617-1, 0.174 µM; with N119, 0.203 µM. Besides, the CC50 is greater than 100 µM in data set [5] and 45200 nM in “in vitro”. The “excised organs at the end of the experiment” value in data set [6] is “appeared as normal”. The “toxic symptoms (weight loss, skin damage, food and water intake impairment and postual abnormality) and mortality” value in [6] is listed as “no toxic symptoms”.
